Where two headings read alike, the source gives them in different places.

This is an account of results in patent publication US20100210649A1, “PYRIDAZINONES AND FURAN-CONTAINING COMPOUNDS” (Sloan-Kettering Institute for Cancer Research, priority 2006, published 2010).

Assay [1] concerns NHBE (normal human bronchiolar epithelial cells). Description: cells.
The subject of assay [2] is H827. Description: Non Small Cell Lung Cancer proliferation assay (Alamar Blue reduction), H827. Format: cell-based. As to the method: […] are grown and maintained in Corning 175 cm2 flasks in RPMI 1640 media supplemented with 10% FBS, 1% antibiotic solution, 1% additional glutamine and pyruvate. These cells have a doubling time of 1-2 days. All cell types are adherent and grow in colonies. The cells should be kept at a density between 50,000 cells/mL -500,000 cells/mL to provide for optimum growth and adequate nutrition. The cell line should be maintained at 37° C. in a humidified atmosphere with 5% CO2 in a sterile cell culture incubator.
Non Small Cell Lung Cancer Proliferation Assay. To perform the assay, the Non Small Cell Lung Cancer lines are diluted in media and plated into 384 well microplates at a final density of 250 cells in […]. To ensure consistency and minimal pipetting error, the cells are plated using the Multidrop 384 with the following settings: Rocker Switch set at 384, Volume 45 and Column 24.
Low Controls for this assay are made by treating Non Small Cell Lung Cancer cells with 5 ul of staurosporine at 250 uM in 10% DMSO and 1% SDS. [Final concentration in this assay is 25 uM staurosporine in 1% DMSO and 0.1% SDS.]
High Controls for this assay are made by treating Non Small Cell Lung Cancer cells with 5 ul of 10% DMSO. [Final concentration in this assay is 1% DMSO].
The remaining wells of the 384 microplate may be treated with different compounds depending on the study. Important Note: All compounds for testing in this assay should be done at the final concentration of 1% DMSO.
After addition, the cells are placed in cell culture incubator at 37° C. for 48 hours for complete treatment.
After drug treatment, cytotoxicity is measured by Alamar Blue reduction. 5 μL of Alamar Blue is added to the 384 microplates using the Flexdrop.
The cells are incubated for 48 hours at 37° C. to complete the Alamar Blue reduction.
The final step in the assay is to measure the amount of Alamar Blue reduction. […] The Alamar Blue fluorescence is measured at an excitation of 530 nm and emission of 590 nm.
For the NSCLC project, the cell based assay was screened against a small molecule library of approximately 200,000 compounds. The compound library is stored in our automated robotic freezer (Biophile) at −20° C. in 100% DMSO. Compound freeze and thaw cycles are kept to a minimum. Compounds for use are diluted into the appropriate concentration and plated into 384 well microplates using our custom built low volume 384-well head tool (TPS 384, Apricot Designs Inc., CA, USA). This assay was performed on a fully automated linear track robotic platform (CRS F3 Robot System, Thermo Electron Corp., Ontario, Canada) utilizing several integrated peripherals for plate handling, liquid dispensing, and readout detection. First, non-small cell lung cancer cell lines are dispensed into 384 well microplates (Corning #3712 Tissue Culture Treated Plate, Corning, N.Y., USA) with 5 μL of test compounds at 100 uM in 10% DMSO for screening studies or […] in 10% DMSO to 50 nM in 10% DMSO for dose response studies. The microplates are then placed at 37° C. for 48 hours to complete treatment of cells with compounds. Next, 5 ul of alamar blue was added using a liquid dispenser (Flexprop Precision Dispenser, Perkin Elmer, Mass., USA) and incubated for 48 hours at 37° C. The alamar blue prompt fluorescence was measured on Victor V (Victor^3 V, Perkin Elmer, Mass., USA) and output data files were loaded into ORIS (Oncology Research Informatics System, MSKCC, NY, USA), a screening data acquisition and analysis platform.

The subject of assay [3] is p70 S6 kinase. Description: Phosphoprotein array, p70 S6 kinase. Format: cell-based. The conditions noted are these: cells treated for 24 hours; PI-3kinase signaling pathway. As to the method: FIG. 43A-43C. A phosphoprotein array was used to determine which signaling pathways were affected by treatment of cells with SKI-267077. […] A phosphoprotein array (R and D Systems) was used to measure the level of phosphorylation of cellular proteins. Protein phosphorylation was determined according to the manufacturer's instructions.

Assay [4] concerns H3255. Briefly: [3H]-thymidine incorporation assay, H3255. The class given is cell-based, human. The conditions noted are these: H3255, mutant EGFR. The procedure: FIGS. 41A-41B. SKI-267077 inhibits DNA synthesis. SKI-267077 was used to elucidate the mechanism by which this agent inhibits cell growth.
(§1) [^3H]-thymidine incorporation assay. Cells were seeded in 12-well plates at a density of 100 000 cells/well and treated with inhibitors for 24 hours. H3-thymidine (3 μCi/mL) was then added for 3 hours. Cells were washed twice with PBS, fixed with cold 10% TCA (in PBS) for 30 min then lysed with 0.5% NaOH/0.5% SDS. DNA was scraped from the wells and the amount of H3-thymidine incorporated determined by liquid scintillation counting.
Background: Uptake of a labelled nucleoside into DNA is a usual measure of proliferation.

The subject of assay [5] is caspase 3/7. Briefly: Caspase 3/7 enzyme activity assay in cell extracts. The class given is cell-based, human. The conditions noted are these: H2030 cells, 1 μM, 48 h, whole cell extracts. The procedure: FIG. 3. Activation of caspase 3/7 by SKI-267077. H2030 cells were treated with 1 μM SKI-267077 for 48 h and then caspase 3/7 activity measured in whole cell extracts.
Caspase 3/7 enzyme activity assay. Apoptosis was determined by measuring the enzymatic activity of caspase 3/7 in cell homogenates. Cells were plated at a density of 10,000 cells per well in 96-well plates and treated immediately with drugs for 24-72 h. Caspase 3/7 activity will be determined in cell extracts using Z-DEVD-R110 (rhodamine 110 conjugated to the caspase substrate Z-DEVD) as substrate (Promega). The fluorescence of the cleaved substrate was measured using a micro-titer fluorescence plate reader (Ex: 499 nm, Em: 521 nm).
SKI-267077 stimulates the enzymatic activity of caspase 3/7.

Assay [6] relates to H2030 cells. Description: [3H]-thymidine incorporation assay, H2030. The conditions noted are these: increasing concentrations, 24 hours. The class given is cell-based, human. The procedure:
FIG. 1. SKI-267077 blocks DNA synthesis. H2030 cells were treated with the indicated concentration of SKI-267077 for 24 h and then the incorporation of ^3H-thymidine into DNA was determined
as §1
SKI-267077 inhibits DNA synthesis. […] H2030 cells were treated with increasing concentrations of SKI-267077 for 24 hours and then incorporation of ^3H-thymide into DNA determined (FIG. 1).

Setting [7] is: Homo sapiens, NHBE, read-out: IC50(uM) NHBE.
The mark [8] stands for this setting: Homo sapiens; read-out: Dose Response (uM) H827.
Setting [9] is: Homo sapiens, read-out: Dose Response (uM) H827.

For the compound `Cc1ccc(NC(=O)c2ccc([N+](=O)[O-])o2)cc1` [compound 98697], the IC50 in assay [1] (setting [7]) was 29.4 µM.
Take `O=c1c(Br)c(Br)cnn1-c1ccccc1` [compound 257015]: the IC50 in assay [2] (setting [8]) amounted to 0.17 µM.
On the same count and under the same terms, in the case of `Cc1cccc(-n2ncc(Cl)c(Cl)c2=O)c1C` [compound 257018] it was 0.5 µM.
Consider `Cc1cccc(NC(=O)c2ccc([N+](=O)[O-])o2)c1` [compound 71762], for which the IC50 in assay [1] (Homo sapiens, NHBE, read-out: IC50(uM) NHBE, phenylfuran-2-carboxamide SAR summary) worked out at 15.8 µM; in assay [1] (read-out: IC50(uM) NHBE, phenylfuran-2-carboxamide SAR summary) it was 14.8 µM.
On to `O=c1c(Cl)c(Cl)cnn1-c1cccc(C(F)(F)F)c1` [compound 176729], for which the IC50 in assay [2] (setting [8]) was 0.17 µM.
Same read-out and setting: then `Cc1ccc(-n2ncc(Cl)c(Cl)c2=O)cc1` [compound 257016], with 0.29 µM.
With `Cc1ccc(-n2ncc(Cl)c(Cl)c2=O)cc1C` [compound 257019], the IC50 in assay [2] (setting [8]) came out at 0.32 µM.
`O=c1c(Cl)c(Cl)cnn1-c1ccccc1` [compound 257014]: the IC50 in assay [2] (setting [9]) is 0.24 µM.
As for `O=C(Nc1ccc(Cl)cc1)c1ccc([N+](=O)[O-])o1` [compound 98698, 5-nitro-furan-2-carboxylic acid (4-chloro-phenyl)-amide], in assay [1] (setting [7]), the IC50 is 21.4 µM.
As to `O=c1c(Cl)c(Cl)cnn1-c1ccc(Cl)cc1Cl` [compound 267077], the “phosphorylation of p70 S6 kinase” value in assay [3] is given as “blocked phosphorylation”. For the same compound, the DNA synthesis result in assay [4] was “dose-dependent reduction in DNA synthesis”. For the same compound, the “activity of caspase 3/7” value in assay [5] is listed as “increase in the activity of caspase 3/7”. Also, the “incorporation of 3H-thymidine into DNA (DNA synthesis)” value in assay [6] was “dose-dependent decrease in DNA synthesis”.
In the case of `Cc1cccc(-n2ncc(Cl)c(Cl)c2=O)c1` [compound 104122, 4,5-dichloro-2-m-tolyl-2H-pyridazin-3-one], in assay [2] (setting [9]), the IC50 came to 0.09 µM.
With `Cc1cc(C)cc(-n2ncc(Cl)c(Cl)c2=O)c1` [compound 257020], in assay [2] (setting [8]), the IC50 was 0.3 µM.
